Tests used:
Assay type in all cases: in vivo
[1] = test system: barnyard grass; assay: Test Example 1: weedkilling efficacy, preemergent weed treatment in the submerged state; A: barnyard grass
Text: (§1) Weedkilling efficacy test on preemergent weed treatment in the submerged state
(§2) Alluvial soil was introduced into 1/10,000 Are Wagner pots, and 4 cm depth submerged conditions were created by addition of water and mixing. Seeds of barnyard grass, bulrush and oval-leafed pondweed were mixed and sown into the aforesaid cups, then 2.5 leaf stage rice seedlings were transplanted. On the sowing day, emulsions of compounds of the present invention prepared according to compounding example 2 were diluted with water to give the specified dosages and applied onto the water surface. The plants were grown after placing the cups in a greenhouse at 25 to 30° C. 3 weeks after the pesticide treatment the effect on each type of plant was investigated on the basis of the following assessment criteria.
(§3) A: barnyard grass, B: bulrush, C: oval-leafed pondweed, D: crabgrass, E: green foxtail, F: barnyard grass, G: wild oat, H: black-grass, I: Italian ryegrass, J: common wind-grass, K: Indian mallow, L: redroot pigweed, M: fig-leafed goosefoot, N: chickweed, O: catchweed, p: birds-eye speedwell, a: transplanted rice, b: directly sown rice, c: corn, d: soybean, e: wheat, f: beet, g: rapeseed
(§4) Further, pesticide dosage (g/ha) indicates the concentration regulated such that treatment was with only the stated number of grams (g), when calculated per hectare (ha).

[2] = test system: bulrush; assay: Test Example 1: weedkilling efficacy, preemergent weed treatment in the submerged state; B: bulrush
Text: as §1, §2, §3, §4

[3] = test system: oval-leafed pondweed; assay: Test Example 1: weedkilling efficacy, preemergent weed treatment in the submerged state; C: oval-leafed pondweed
Text: as §1, §2, §3, §4

[4] = test system: transplanted rice; assay: Test Example 1: preemergent weed treatment in the submerged state, effect on crop; a: transplanted rice
Text: as §1, §2, §3, §4

[5] = test system: barnyard grass; assay: Test Example 2: weedkilling efficacy, growth period weed treatment in the submerged state; A: barnyard grass
Protocol: (§5) Weedkilling efficacy test on growth period weed treatment in the submerged state
as §2, with “and the plants were grown by placing in a greenhouse at 25 to 30° C. When the barnyard grass, bulrush and oval-leafed pondweed had reached the 1-2” for “then 2.5”, “stage,” for “stage rice seedlings were transplanted. On the sowing day,”, “surface.” for “surface. The plants were grown after placing the cups in a greenhouse at 25 to 30° C.”, “the” for “the following”, “criteria of test example 1.” for “criteria.”
as §3, §4

[6] = test system: bulrush; assay: Test Example 2: weedkilling efficacy, growth period weed treatment in the submerged state; B: bulrush
Protocol: as §5
as §2, with “and the plants were grown by placing in a greenhouse at 25 to 30° C. When the barnyard grass, bulrush and oval-leafed pondweed had reached the 1-2” for “then 2.5”, “stage,” for “stage rice seedlings were transplanted. On the sowing day,”, “surface.” for “surface. The plants were grown after placing the cups in a greenhouse at 25 to 30° C.”, “the” for “the following”, “criteria of test example 1.” for “criteria.”
as §3, §4

[7] = test system: oval-leafed pondweed; assay: Test Example 2: weedkilling efficacy, growth period weed treatment in the submerged state; C: oval-leafed pondweed
Protocol: as §5
as §2, with “and the plants were grown by placing in a greenhouse at 25 to 30° C. When the barnyard grass, bulrush and oval-leafed pondweed had reached the 1-2” for “then 2.5”, “stage,” for “stage rice seedlings were transplanted. On the sowing day,”, “surface.” for “surface. The plants were grown after placing the cups in a greenhouse at 25 to 30° C.”, “the” for “the following”, “criteria of test example 1.” for “criteria.”
as §3, §4

Structure (SMILES) | A: barnyard grass, weed kill grade ([1]; treatment dosage 252 g/ha) | B: bulrush, weed kill grade ([2]; treatment dosage 252 g/ha) | C: oval-leafed pondweed, weed kill grade ([3]; treatment dosage 252 g/ha) | a: transplanted rice, effect on crop grade ([4]; treatment dosage 252 g/ha) | A (barnyard grass) weedkilling efficacy grade ([5]; treatment dosage 252 g/ha) | B (bulrush) weedkilling efficacy grade ([6]; treatment dosage 252 g/ha) | C (oval-leafed pondweed) weedkilling efficacy grade ([7]; treatment dosage 252 g/ha) | A (barnyard grass) weedkilling efficacy grade ([5]; treatment dosage 320 g/ha) | B (bulrush) weedkilling efficacy grade ([6]; treatment dosage 320 g/ha) | C (oval-leafed pondweed) weedkilling efficacy grade ([7]; treatment dosage 320 g/ha) | A: barnyard grass, weed kill grade ([1]; treatment dosage 320 g/ha) | B: bulrush, weed kill grade ([2]; treatment dosage 320 g/ha) | C: oval-leafed pondweed, weed kill grade ([3]; treatment dosage 320 g/ha) | a: transplanted rice, effect on crop grade ([4]; treatment dosage 320 g/ha) | also measured
CC(C)(C(=O)Nc1cccc(-c2ccccc2)n1)N1COCN(c2ccccc2)C1=O [A-2-50] | 5 (weed kill ratio 90% or more, (practically complete withering)) | 5 (weed kill ratio 90% or more, (practically complete withering)) | 5 (weed kill ratio 90% or more, (practically complete withering)) | 0 (weed kill ratio 5% or less (practically no effect)) | 4 (weed kill ratio 70% or more, less than 90%) | 4 (weed kill ratio 70% or more, less than 90%) | 3 (weed kill ratio 40% or more, less than 70%) | – | – | – | – | – | – | – | –
CC(C)(C(=O)Nc1cc(C2CC2)ccn1)N1COCN(c2ccccc2)C1=O [A-2-45] | 5 (weed kill ratio 90% or more, (practically complete withering)) | 5 (weed kill ratio 90% or more, (practically complete withering)) | 5 (weed kill ratio 90% or more, (practically complete withering)) | 0 (weed kill ratio 5% or less (practically no effect)) | 4 (weed kill ratio 70% or more, less than 90%) | 4 (weed kill ratio 70% or more, less than 90%) | 3 (weed kill ratio 40% or more, less than 70%) | – | – | – | – | – | – | – | –
CC1=C(c2cccnc2F)C(=O)N(C(C)(C)C(=O)Nc2cccc(Br)n2)CO1 [B-2-10] | – | – | – | – | – | – | – | 5 (weed kill ratio 90% or more, (practically complete withering)) | 5 (weed kill ratio 90% or more, (practically complete withering)) | 5 (weed kill ratio 90% or more, (practically complete withering)) | – | – | – | – | A (barnyard grass) weedkilling efficacy grade ([1]; treatment dosage 320 g/ha): 5 (weed kill ratio 90% or more, (practically complete withering)); B (bulrush) weedkilling efficacy grade ([2]; treatment dosage 320 g/ha): 5 (weed kill ratio 90% or more, (practically complete withering)); C (oval-leafed pondweed) weedkilling efficacy grade ([3]; treatment dosage 320 g/ha): 5 (weed kill ratio 90% or more, (practically complete withering)); a (transplanted rice) effect on crop grade ([4]; treatment dosage 320 g/ha): 1 (weed kill ratio 5% or more, less than 20%)
CC(C)(C(=O)Nc1cnc(Cl)c(Cl)c1)N1COCN(c2ccccc2)C1=O [A-3-05] | – | – | – | – | – | – | – | 4 (weed kill ratio 70% or more, less than 90%) | 5 (weed kill ratio 90% or more, (practically complete withering)) | 5 (weed kill ratio 90% or more, (practically complete withering)) | 3 (weed kill ratio 40% or more, less than 70%) | 5 (weed kill ratio 90% or more, (practically complete withering)) | 5 (weed kill ratio 90% or more, (practically complete withering)) | 0 (weed kill ratio 5% or less (practically no effect)) | –
CC(C)(C(=O)Nc1cc(Oc2ccccc2)ccn1)N1COCN(c2ccccc2)C1=O [A-2-55] | – | – | – | – | – | – | – | – | – | – | – | – | – | – | A: barnyard grass, weed kill grade ([1]; treatment dosage 234 g/ha): 5 (weed kill ratio 90% or more, (practically complete withering)); B: bulrush, weed kill grade ([2]; treatment dosage 234 g/ha): 5 (weed kill ratio 90% or more, (practically complete withering)); C: oval-leafed pondweed, weed kill grade ([3]; treatment dosage 234 g/ha): 5 (weed kill ratio 90% or more, (practically complete withering)); a: transplanted rice, effect on crop grade ([4]; treatment dosage 234 g/ha): 0 (weed kill ratio 5% or less (practically no effect)); A (barnyard grass) weedkilling efficacy grade ([5]; treatment dosage 234 g/ha): 0 (weed kill ratio 5% or less (practically no effect)); B (bulrush) weedkilling efficacy grade ([6]; treatment dosage 234 g/ha): 2 (weed kill ratio 20% or more, less than 40%); C (oval-leafed pondweed) weedkilling efficacy grade ([7]; treatment dosage 234 g/ha): 5 (weed kill ratio 90% or more, (practically complete withering))
Cc1ccc(N2COCN(C(C)(C)C(=O)Nc3cc(C(F)(F)F)ccn3)C2=O)cc1Cl [A-6-04] | – | – | – | – | – | – | – | 1 (weed kill ratio 5% or more, less than 20%) | 2 (weed kill ratio 20% or more, less than 40%) | 0 (weed kill ratio 5% or less (practically no effect)) | 4 (weed kill ratio 70% or more, less than 90%) | 4 (weed kill ratio 70% or more, less than 90%) | 2 (weed kill ratio 20% or more, less than 40%) | 0 (weed kill ratio 5% or less (practically no effect)) | –
CC(C)(C(=O)Nc1cc(Cl)cc(Cl)n1)N1COCN(c2ccccc2)C1=O [A-2-17] | 5 (weed kill ratio 90% or more, (practically complete withering)) | 5 (weed kill ratio 90% or more, (practically complete withering)) | 5 (weed kill ratio 90% or more, (practically complete withering)) | 3 (weed kill ratio 40% or more, less than 70%) | 5 (weed kill ratio 90% or more, (practically complete withering)) | 5 (weed kill ratio 90% or more, (practically complete withering)) | 5 (weed kill ratio 90% or more, (practically complete withering)) | – | – | – | – | – | – | – | –
CC(C)(C(=O)Nc1cc(-c2ccsc2)ccn1)N1COCN(c2ccccc2)C1=O [A-5-01] | – | – | – | – | – | – | – | 4 (weed kill ratio 70% or more, less than 90%) | 4 (weed kill ratio 70% or more, less than 90%) | 4 (weed kill ratio 70% or more, less than 90%) | 4 (weed kill ratio 70% or more, less than 90%) | 5 (weed kill ratio 90% or more, (practically complete withering)) | 5 (weed kill ratio 90% or more, (practically complete withering)) | 0 (weed kill ratio 5% or less (practically no effect)) | –
CC(C)(C(=O)Nc1cccc(C2CC2)n1)N1COCN(c2ccccc2)C1=O [A-2-46] | 5 (weed kill ratio 90% or more, (practically complete withering)) | 4 (weed kill ratio 70% or more, less than 90%) | 3 (weed kill ratio 40% or more, less than 70%) | 1 (weed kill ratio 5% or more, less than 20%) | 4 (weed kill ratio 70% or more, less than 90%) | 2 (weed kill ratio 20% or more, less than 40%) | 0 (weed kill ratio 5% or less (practically no effect)) | – | – | – | – | – | – | – | –
CC(C)(C(=O)Nc1cc(Cl)cc(Br)n1)N1COCN(c2c(F)cccc2F)C1=O [A-6-02] | 5 (weed kill ratio 90% or more, (practically complete withering)) | 5 (weed kill ratio 90% or more, (practically complete withering)) | 5 (weed kill ratio 90% or more, (practically complete withering)) | 0 (weed kill ratio 5% or less (practically no effect)) | 5 (weed kill ratio 90% or more, (practically complete withering)) | 5 (weed kill ratio 90% or more, (practically complete withering)) | 5 (weed kill ratio 90% or more, (practically complete withering)) | – | – | – | – | – | – | – | –
Cc1ccc(N2COCN(C(C)(C)C(=O)Nc3cc(C(F)(F)F)ccn3)C2=O)cc1 [A-6-09] | – | – | – | – | – | – | – | 3 (weed kill ratio 40% or more, less than 70%) | 3 (weed kill ratio 40% or more, less than 70%) | – | 4 (weed kill ratio 70% or more, less than 90%) | 5 (weed kill ratio 90% or more, (practically complete withering)) | 4 (weed kill ratio 70% or more, less than 90%) | 0 (weed kill ratio 5% or less (practically no effect)) | –

Source: patent publication US9738634B2, “Heterocyclic amide compound and herbicide” (SYNGENTA PARTICIPATIONS AG, priority 2013, dated 2017)
